Measured values as given in patent publication US20260365677A1, “NEW CONTRAST AGENTS FOR USE IN DIAGNOSTIC IMAGING” (Bayer Aktiengesellschaft, priority 2022, published 2026).

What was measured:
[1] = Partition coefficient (log P butanol/buffer); format: physicochemical; conditions: 50 mM Tris-HCl, pH 7.4, 10 μM, room temperature
Procedure: The partition coefficient P (log P=log(Cbutanol/Cbuffer)) was determined in buffered aqueous solution (10 μM of compound in 0.5 mL 50 mM Tris-HCl saturated with Butanol, pH 7.4) and 1-butanol 1+1 and the mixture was shaken for 2 h at room temperature (n=3). The Gd-concentrations in each phase. CObutano, and Cbuffer were measured by ICP-MS (The Chemistry of Contrast Agents in Medical Magnetic Resonance Imaging” 2nd Ed. Merbach A S, Helm L, Toth E, eds. Hoboken, NJ: Wiley 2013).

[2] = system: freshly isolated rat hepatocytes; assay: Uptake into freshly isolated rat hepatocytes; format: cell-based; conditions: 100 μmol Gd/L, 10 min, 37 °C, relative to RC1 (Gd-EOB-DTPA)
Procedure: Triplicates were performed for each test item.

OATP1B3 = molecular target: T1, OATP1B3 (Homo sapiens, UniProt Q9NPD5); assay: Uptake into stable transfected OATP1B3 HEK 293 cells; format: cell-based; conditions: 100 μM, 40 min, relative to RC1 (Gd-EOB-DTPA)
T1 construct: expressed in transfected cells
T1 sequence (Q9NPD5 1-702): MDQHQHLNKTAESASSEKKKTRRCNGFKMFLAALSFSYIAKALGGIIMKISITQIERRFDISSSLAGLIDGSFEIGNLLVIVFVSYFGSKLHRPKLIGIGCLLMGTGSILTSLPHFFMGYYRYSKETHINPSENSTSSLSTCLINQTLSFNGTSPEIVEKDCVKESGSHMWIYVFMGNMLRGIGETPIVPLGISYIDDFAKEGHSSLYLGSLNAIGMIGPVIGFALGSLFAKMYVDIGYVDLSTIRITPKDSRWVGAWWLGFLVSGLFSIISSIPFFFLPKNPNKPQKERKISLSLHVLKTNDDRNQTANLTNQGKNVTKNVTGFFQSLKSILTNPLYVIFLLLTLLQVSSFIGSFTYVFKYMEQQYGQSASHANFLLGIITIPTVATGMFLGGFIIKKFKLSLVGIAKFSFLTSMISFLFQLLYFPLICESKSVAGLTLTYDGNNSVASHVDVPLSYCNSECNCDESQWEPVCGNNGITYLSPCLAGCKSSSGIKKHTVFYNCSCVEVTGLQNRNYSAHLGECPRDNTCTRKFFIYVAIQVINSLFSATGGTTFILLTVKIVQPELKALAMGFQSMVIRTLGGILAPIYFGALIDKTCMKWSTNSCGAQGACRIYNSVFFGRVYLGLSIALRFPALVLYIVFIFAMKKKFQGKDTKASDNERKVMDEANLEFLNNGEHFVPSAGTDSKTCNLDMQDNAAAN
Procedure: Human transfected OATP1B3 human embryonic kidney 293 cells (OATP1B3 HEK 293, SLCO1B3, Entrez Gene ID: 28234) were used (Leonhardt M et al. Drug Metab Dispos. 2010 July; 38(7):1024-8). The following culture medium was used: 500 mL DMEM (Dulbecco's Modified Eagle Medium—high Glucose, D6429), 50 mL FCS (fetal bovine serum, Fa. Sigma, F7524), 5.8 mL G418 (Geneticin, Fa. Gibco 10131-027) and 5 mL Pen-Strep. (Penicillin-Streptomycin, Fa. Gibco, Ref 15140-122). Cryopreserved cells were shortly thawed in water bath and diluted in 10 mL warm culture medium (37 °C). After medium change the cells were grown for 3d in a 25 cm^2 cell culture flask. After 3 to 5d the cells were transferred into 75 cm^2 flasks. For the splitting of cells these were incubated with 1.5 mL trypsin (Trypsin-EDTA (1×) 0.05%, Ref 25300-054 100 ml, Fa. Gibco) for 3-5 min in the incubator (37 °C, 5% CO2 and 95% oxygen). After centrifugation and washing with medium the cells were counted (50 μL cell suspension and 50 μL trypan blue (Trypan Blue Solution, 93595-50 ml, Fa. Fluka). Cells were cultured (1×10^5 cells/well) in poly-D-lysine coated 24-well plates (Fa. Corning, Ref: 354414) in 1.5 mL medium per well. After 48 hours in the incubator the medium was changed and 1.5 mL/well sodium butyrate containing medium were added (40 mL culture medium plus 400 μL Na-Butyrate, Fa. Sigma Aldrich B5887-5G, 250 mg in 2.27 mL MilliQ water). After 24 hours in the incubator the medium was vacuumed off and 1.5 mL transport buffer was added and incubated for 10 min. The transport buffer contains the following ingredients: 500 mL HBSS (Hank's balanced salt solution, Hyclone, SH30268.01), 5 mL HEPES buffer (4-(2-hydroxyethyl)-1-piperazine-ethanesulfonic acid, Gibco 15630-056) and 3.9 mL glucose (Sigma, G8270-100, 90 g/200 mL MilliQ water). All test items were prepared in transport buffer at a final concentration of 100 μM from stock solutions (180 to 500 mM concentration). The OATP1B3 HEK 293 cells were incubated with test solutions (test item in transport buffer 500 μL) for 40 min on a thermoshaker without shaking (PHMP, Fa. Grant Bio). Triplicates were performed for each test item. After incubation the cells were washed with 2 mL of cold PBS (+) buffer (Dulbeccos PBS+, Fa. Gibco). […] As a reference standard Gd-EOB-DTPA (gadoxetate) is used in the same well plate. The OATP1B3 HEK 293 uptake of the test compound is calculated relative to gadoxetate (resulting in the unit % of RC1).

[3] = Relaxivity measurements at 1.41 T in water and human plasma; format: physicochemical; conditions: 37 °C, normalized to Gd
Procedure: Relaxivity measurements at 1.41 T were performed using a MiniSpec mq60 spectrometer (Bruker Analytik, Karlsruhe, Germany) operating at a resonance frequency of 60 MHz and a temperature of 37 °C. The T1 relaxation times were determined using the standard inversion recovery (IR) method with a fixed relaxation delay of at least 5×T1. The variable inversion time (TI) was calculated automatically by the standard software of the MiniSpec mq60 (8 steps). The T2 measurements were performed by using a Carr-Purcell-Meiboom-Gill (CPMG) pulse sequence, applying a relaxation delay of at least 5×T1.
Each relaxivity measurement was performed using three different Gd concentrations (3 concentrations between 0.05 and 2 mM). The T1 and T2 relaxation times of the example compounds 1 to 10 were measured in different media for example in water and human plasma. Human plasma preparation: For each experiment fresh blood was taken from a volunteer using 10 mL citrate-tubes (Sarstedt S-Monovette 02.1067.001, 10 mL, Citrate). The 10 mL citrate-tubes were carefully inverted 10 times to mix blood and anticoagulant and centrifuged for 15 min at 1811 g at RT (Eppendorf, Centrifuge 5810R).
The relaxivities ri (where i=1, 2) were calculated based on the measured relaxation rates R, in water and plasma:
where Ri(0) represent the relaxation rate of the respective solvent and CGd the concentration of the compound normalized to the Gadolinium. The Gadolinium concentrations of the investigated solutions were verified by Inductively Coupled Plasma Mass Spectrometry (ICP-MS Agilent 7500a, Waldbronn, Germany).

| Structure (SMILES) | Log P [1] | Uptake rat hepatocytes [2] | Uptake into OATP1B3-HEK 293 cells (OATP1B3) | r1 human plasma [3] | r1 water [3] |
| --- | --- | --- | --- | --- | --- |
| CCOc1ccc(CC2CN(CC(=O)[O-])CCN(CC(=O)[O-])CCN(CC(=O)O)CCN2CC(=O)[O-])cc1.[Gd+3] (single isomer, unassigned; diastereomer 2) [Example 9, Gadolinium-2,2′,2″-[10-(carboxymethyl)-2-(4-ethoxybenzyl)-1,4,7,10-tetraazacyclododecane-1,4,7-triyl]triacetate (racemic diastereomer 2)] | −1.36 | 42 % of RC1 | 13 % of RC1 | 5.6 L/mmol/s | 4.3 L/mmol/s |
| CCOc1ccc(CC2CN(CC(=O)[O-])CCN(CC(=O)[O-])CCN(CC(=O)O)CCN2CC(=O)[O-])cc1.[Gd+3] (single isomer, unassigned; diastereomer 1) [Example 8, Gadolinium-2,2′,2″-[10-(carboxymethyl)-2-(4-ethoxybenzyl)-1,4,7,10-tetraazacyclododecane-1,4,7-triyl]triacetate (racemic diastereomer 1)] | −1.33 | 143 % of RC1 | 94 % of RC1 | 6.5 L/mmol/s | 4.7 L/mmol/s |
| CCOCCOCCOc1ccc(C[C@H]2CN(CC(=O)[O-])CCN(CC(=O)[O-])CCN(CC(=O)O)CCN2CC(=O)[O-])cc1.[Gd+3] [Example 2, Gadolinium-2,2′,2″-[(2S)-10-(carboxymethyl)-2-{4-[2-(2-ethoxyethoxy)ethoxy]benzyl}-1,4,7,10-tetraazacyclododecane-1,4,7-triyl]triacetate] | −1.52 | 65 % of RC1 | 121 % of RC1 | 5.9 L/mmol/s | 4.9 L/mmol/s |
| CCOCCOc1ccc(C[C@H]2CN(CC(=O)[O-])CCN(CC(=O)[O-])CCN(CC(=O)O)CCN2CC(=O)[O-])cc1.[Gd+3] [Example 4, Gadolinium-2,2′,2″-{(2S)-10-(carboxymethyl)-2-[4-(2-ethoxyethoxy)benzyl]-1,4,7,10-tetraazacyclododecane-1,4,7-triyl}triacetate] | −1.57 | 67 % of RC1 | 103 % of RC1 | 6.6 L/mmol/s | 4.8 L/mmol/s |
| CCOCCOCCOc1ccc(C[C@H]2CN(CC(=O)[O-])CCN(CC(=O)[O-])CCN(CC(=O)O)CCN2CC(=O)[O-])nc1.[Gd+3] [Example 6, Gadolinium 2,2′,2″-[(2S)-10-(carboxymethyl)-2-({5-[2-(2-ethoxyethoxy)ethoxy]pyridin-2-yl}methyl)-1,4,7,10-tetraazacyclododecane-1,4,7-triyl]triacetate] | −1.96 | 47 % of RC1 | 32 % of RC1 | 5.9 L/mmol/s | 5.3 L/mmol/s |
